We go through one molecule from patent US8686115B2, “Compositions and methods for quantitatively monitoring lipids” (The Board of Trustees of the University of Illinois, priority 2009, dated 2014).

The structures appear in SMILES notation. Changes are numbered by the printed parent chain.

For experiment [1], the target named is T1, epsin 1 ENTH domain (SEQ ID NO: 1) variant C96A (Homo sapiens, UniProt Q9Y6I3, C96A).
T1 construct: The Epsin1 ENTH domain (1-158 amino acids) was subcloned; GST (C, cleaved yes); made in house; host or cells: E. coli BL21 RIL codon plus
T1 sequence (Q9Y6I3 1-158 C96A): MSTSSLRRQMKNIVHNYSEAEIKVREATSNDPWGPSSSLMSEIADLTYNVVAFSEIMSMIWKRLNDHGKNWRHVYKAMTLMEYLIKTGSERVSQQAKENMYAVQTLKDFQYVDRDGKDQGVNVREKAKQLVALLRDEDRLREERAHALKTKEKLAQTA
Description: SPR equilibrium binding of epsin1 ENTH C96A to phosphoinositide-containing LUVs. The note with it: POPC/POPS/PtdIns(4,5)P2 (77:20:3) LUVs, 20 mM Tris-HCl pH 7.4, 0.16 M KCl, read-out: Kd for PtdIns(4,5)P2. An excerpt:
(§1) The ENTH domain was engineered to introduce a single labeling site (M10C) on the membrane binding surface while removing an endogenous Cys (C96A). We also performed the S4W mutation to suppress its residual affinity for another lipid, phosphatidylinositol-3,4,5-trisphosphate (PtdIns(3,4,5)P3) (PtdIns(4,5)P2/PtdIns(3,4,5)P3=4 for wild type and >10 for the mutant) and to enhance the overall affinity for PtdIns(4,5)P2-containing membranes (ca. 4-fold) (Table 1).
With respect to FIG. 1, an L1 sensor chip was coated with POPC/POPS/PtdIns(4,5)P2 (77:20:3) LUVs. The proteins were incubated with a given concentration of IP3 for 5 minutes before injecting into the SPR instrument. Kinetic SPR measurements were performed in 20 mM Tris-HCL, pH 7.4, containing 0.16 KCl. […] A lower concentration of DAN-eENTH was used than that of PLCδ PH because the former has much higher affinity that the latter.
All mutations (S4W, M10C, and C96A) were performed by polymerase chain reaction mutagenesis and verified by DNA sequencing. eENTH may comprise the following sequence:
E. coli BL21 RIL codon plus (Stratagene) cells were used for protein expression. Cells were grown in Luria broth media containing 100 μg/ml of ampicillin at 37° C. 0.1 mM of Isopropyl β-D-1-thiogalactopyranoside was added to induce over-expression of recombinant proteins when the OD600 reached 0.5-0.8 and cells were grown for additional 6 to 10 hours at 25° C. Cells were harvested by centrifugation and cell pellets were resuspended in 50 mM Tris-HCl buffer (pH 7.4) containing 160 mM KCl, 1 mM phenylmethanesulphonylfluoride, and 5 mM of dithiothreitol (DTT). Cells were lysed by sonication and the lysate was collected by centrifugation at 4° C. […] Purity and the concentration of the recombinant proteins were determined by sodium dodecylsulfate-polyacrylamide gel electrophoresis and bicinchoninic acid assay, respectively. The DAN labeling yield of eENTH, which was calculated as the molar ratio of DAN (determined spectrophotometrically at 391 nm using its extinction coefficient of 20,000 cm^−1 M^−1) to protein, was typically 60-70%. […]

Experiment [2] concerns the target T2, epsin 1 ENTH domain (SEQ ID NO: 1) variant C96A/S4W (eENTH; SEQ ID NO: 2) (Homo sapiens, UniProt Q9Y6I3, C96A/M10C/S4W).
T2 construct: The Epsin1 ENTH domain (1-158 amino acids) was subcloned; GST (C, cleaved yes); made in house; host or cells: E. coli BL21 RIL codon plus
T2 sequence (Q9Y6I3 1-158 S4W/M10C/C96A): T1 sequence (Q9Y6I3 1-158 C96A) with S4W, M10C
Description: SPR equilibrium binding of epsin1 ENTH C96A/S4W (eENTH) to phosphoinositide-containing LUVs. Conditions: S4W mutant.
Source text: as §1
(§2) With respect to FIG. 1, an L1 sensor chip was coated with POPC/POPS/PtdIns(4,5)P2 (77:20:3) LUVs. The proteins were incubated with a given concentration of IP3 for 5 minutes before injecting into the SPR instrument. Kinetic SPR measurements were performed in 20 mM Tris-HCL, pH 7.4, containing 0.16 KCl. […] A lower concentration of DAN-eENTH was used than that of PLCδ PH because the former has much higher affinity that the latter. […]
(§3) E. coli BL21 RIL codon plus (Stratagene) cells were used for protein expression. […] Purity and the concentration of the recombinant proteins were determined by sodium dodecylsulfate-polyacrylamide gel electrophoresis and bicinchoninic acid assay, respectively. The DAN labeling yield of eENTH, which was calculated as the molar ratio of DAN (determined spectrophotometrically at 391 nm using its extinction coefficient of 20,000 cm^−1 M^−1) to protein, was typically 60-70%. […]

Experiment [3] has as its system epsin 1 ENTH domain (SEQ ID NO: 1) variant C96A/S4W (eENTH; SEQ ID NO: 2). The experiment is described as above. The note with it: S4W mutation, Table 1.
Source text: as §1, §2, §3

Turning to `CCCCCCCCCCCCCCCC(=O)OC[C@H](COP(=O)(O)O[C@@H]1[C@H](O)[C@H](O)[C@@H](OP(=O)(O)O)[C@H](OP(=O)(O)O)[C@H]1O)OC(=O)CCCCCCCCCCCCCCC` [PtdIns(4,5)P2, phosphatidylinositol-4,5-bisphosphate], in experiment [1], the dissociation constant (Kd) was 53 nM. For the same molecule, in experiment [2], the “PtdIns(4,5)P2/PtdIns(3,4,5)P3 selectivity” value is greater than 10. In addition, in experiment [3], the “enhancement of overall affinity for PtdIns(4,5)P2-containing membranes” value is “ca. 4 fold”.
